Data as given in patent publication US6979747B2, “Antioxidants, preparation processes and their uses” (Centre National de la Recherche Scientifique (CNRS), priority 1999, dated 2005).
pEC50: −log10 of the molar value. Like-named read-outs stand apart in the source and are kept apart here.

Tests used:
HIV-1/Ba-L [1] = experiment: Antiviral activity in MDM cultures infected with HIV-1/Ba-L (RT activity in culture supernatants); type: cell-based; conditions: for viral replication (in words): treatment of MDMs 7 days after infection
Experimental: A million monocytes in 1 ml of culture medium A are distributed in each well of a 48 well plate (Becton-Dickinson). The monocytes are left to differentiate into macrophages for 7 days. The macrophages thus differentiated are maintained in culture in medium A.
(§1) The MDMs were infected with the reference isolate with macrophage tropism, HIV-1/Ba-L. The PBMCs and the PBLs were infected with the reference isolate with lymphocyte tropism HIV-1 LAI. The viral stock were formed by amplifying these strains in vitro using umbilical blood mononucleated cells (UBM(s) preactivated with 1 μg/ml of PHA-P and cultured in medium A supplemented by 20 IU/ml of IL-2. In order to remove the soluble factors, such as cytokines, the culture supernatants were ultracentrifuged at 360 000 g for 5 min, and the pellets were resuspended in RPMI 1640. The viral stocks thus formed were subsequently titred using PBMCs activated with PHA-P. The TCID50s (50% Tissue Culture Infectious Dose) were calculated using the Kärber formula.
A million MDMs were infected with 10 000 TCID50s of the HIV-1/Ba-L strain. This amount of virus corresponds to a multiplicity of infection (m.o.i.) equal to 0.01. The excess of virus is removed 24 h after by washing with cells using RPMI 1640. The PBLs and the PBMCs were infected with 10 000 TCID50s of the HIV-1 LAI strain (moi=0.01). The cells were washed at the end of the second day of infection.
The viral replication is measured by assaying the RT activity in the culture supernatants according to the technique described by F. Rey et al. (Biochem. Biophys. Res. Comm., 1984, 121, 126-133). The radioactivity incorporated during the extension of the complementary strand of a poly-rA synthetic matrix in the presence of an oligo-dT12-18 primer and of a radiolabeled substrate, [^3H-methyl]thymidine-5′-triphosphate ([^3H]TPP), makes it possible to assay the enzymatic activity of RT. 400 μl of supernatant are ultracentrifuged at 360 000 g for 5 min. The RT is released by lysis of the viral pellet in 20 μl of NTE-Triton (100 mM NaCl, 10 mM Tris, 1 mM EDTA, 0.1% Triton X-100). These 20 μl are subsequently incubated with 40 μl of the following reaction mixture: 62.5 mM Tris, pH 7.8; 25 mM KCl; 6.25 mM MgCl2; 1.25 mM dithiothreitol (DTT); 2.5×10^−3 ODU oligo-dT12-18 and poly-rA, 5.55×10^−3 TBq {^3H]TTP. After one hour at 37° C., the enzymatic reaction is halted and the newly synthesized strands are precipitated for 20 min at 4° C. by the addition of 1 ml of sodium pyrophosphate (NaPP), of 50 μl of yeast DNA (0.1 mg/ml in 5% trichluoroacetic acid (TCA)), and of 4 ml of 20% TCA. The mixture is filtered using a cellulose acetate membrane (Millipore) which retains the radiolabeled poly-dT chains. The filter is washed using 20 ml of 5% TCA and the residual water is removed by addition of 25 μl of 70% ethanol. The filter is dried in an oven for 10 minutes at 80° C. and is then introduced into vials containing 8 ml of liquid scintillant. The β radioactivity is quantified by means of a scintillation counter (Packard Bell). The results are expressed in pM of [^3H]-TMP incorporated/h/ml of supernatant or, more simply, in cpm/h/ml.
The 50% effective doses (ED50) are calculated from the cumulative RT activities using the software “Dose-effects analysis with microcomputers” developed by J. Chou & T. C. Chou.

HIV-1/Ba-L [2] = experiment: Production of p25 protein in supernatants of MDMs infected with HIV-1/Ba-L (ELISA); type: cell-based; conditions: infected MDM cultures
Experimental: The assaying of the p25 protein is carried out using the ELISA kit from DuPont de Nemours. 200 μl of the culture supernatant to be tested are placed in a well of a microtitration plate. The addition of 20 μl of lysis buffer releases the viral proteins in the medium. The released antigen attaches to a mouse anti-p25 monoclonal antibody immobilized at the bottom of the wells. After incubating for 2 h at 37° C., 3 washing operations using 5 ml of washing buffer are carried out and then 100 μl of a biotinylated polyclonal antibody which reacts with the immobilized antigen are incubated for 1 h at 37° C. The series of 3 washing operations in the same buffer and with the same volume is again carried out before the addition over 15 min at 37° C. of 100 μl of Raifort-streptavidin peroxidase conjugate which will make it possible to amplify the colorimetric reaction. […] After incubating for 30 min at ambient temperature, the reaction is halted by the addition of 100 μl of 4N sulfuric acid. The OD of the coloring thus obtained is read at […]. This absorbence is directly proportional to the amount of attached antigen. The linear relationship relating the O.D. to the p25 concentration is established by virtue of a standard range produced from a recombinant p25 solution.

HIV-1 LAI = experiment: Antiviral activity in quiescent or PHA-P activated PBLs infected with HIV-1 LAI; type: cell-based; conditions: quiescent PBLs or PBLs activated by PHA-P
Experimental: For some experiments, the PBMCs and the PBLs are activated for 48 h with 1 μg/ml of a mitogen, PHA-P (Difco Laboratories). The PBMCs and the PBLs are cultured in medium A (quiescent) or B (activated). The cells are cultured at 37° C. in an atmosphere saturated with moisture under 5% of CO2. The culture supernatants are removed and the culture media are replaced every three or four days. At each renewal of the culture media, the cell viability is evaluated by coloring with trypan blue or by microscopic observation.
as §1
A million MDMs were infected with 10 000 TCID50s of the HIV-1/Ba-L strain. This amount of virus corresponds to a multiplicity of infection (m.o.i.) equal to 0.01. The excess of virus is removed 24 h after by washing with cells using RPMI 1640. […]
The viral replication is measured by assaying the RT activity in the culture supernatants according to the technique described by F. Rey et al. (Biochem. Biophys. Res. Comm., 1984, 121, 126-133). The radioactivity incorporated during the extension of the complementary strand of a poly-rA synthetic matrix in the presence of an oligo-dT12-18 primer and of a radiolabeled substrate, [^3H-methyl]thymidine-5′-triphosphate ([^3H]TPP), makes it possible to assay the enzymatic activity of RT. […] The β radioactivity is quantified by means of a scintillation counter (Packard Bell). […]

GSH = experiment: Intracellular concentration of GSH in spleen macrophages; type: cell-based, human
Experimental: The spleen is dissected and sieved and then the mononuclear cells are isolated using a density gradient, on a Ficoll cushion. The monocytes/macrophages are obtained by adherence to the plastic. The monocytes were allowed to differentiate into macrophages for 7 days, at which time they were infected.
The intracellular GSH was assayed by means of the assay kit sold by Cayman. This method for assaying glutathione is an adaptation of that described by O. W. Griffith et al. (1980).

HIV-1/Ba-L [3] = experiment: Antiviral activity in MDM cultures infected with HIV-1/Ba-L (RT activity in culture supernatants); type: cell-based; conditions: Human immunodeficiency virus 1, BAL; MDMs infected with 1 000 TCID50 (m.o.i. 0.001); read-out: 50% effective dose (ED)
[4] = ratio of inhibiting concentrations, MDMs, HIV-1/Ba-L

In the case of `CC(=O)N[C@@H](CS)C(=O)NCCSC(C)=O` [I-152, N-(N-acetyl-L-cysteinyl)-S-acetylcysteamine], the pEC50 (HIV-1/Ba-L [1]; Human immunodeficiency virus 1, BAL, MDMs infected with 10 000 TCID50s HIV-1/Ba-L (m.o.i. 0.01), read-out: inhibiting concentration (50% effective dose)) was 4.30, the “antiviral activity (in words)” value (HIV-1/Ba-L [1]; MDMs infected with HIV-1/Ba-L, compounds dissolved in medium A) was “strong antiviral activity superior to that of NAC or of MEA” and the “times more effective than MEA” value (HIV-1/Ba-L [1]; [4]) was 6 times. The “times more effective than NAC” value (HIV-1/Ba-L [1]; [4]) was 188 times, the “antiviral activity (in words)” value (HIV-1/Ba-L [1]; second series, compounds dissolved in DMSO then diluted, MDMs, HIV-1/Ba-L) was “the most effective in inhibiting viral replication” and the “viral replication (in words)” value (HIV-1/Ba-L [1]; 250 μM) was “ineffective”. The “viral replication (in words)” value (HIV-1/Ba-L [1]; 500 μM) was “viral replication is extinguished”, the “production of the p25 protein (in words)” value (HIV-1/Ba-L [2]) was “inhibition of the production of the p25 protein” and the “antiviral activity (in words)” value (HIV-1 LAI) was “inhibits viral replication”. For the same compound, the “concentration from which the GSH increase is saturated” value (GSH) was at least 250 µM, the “intracellular level of GSH (in words)” value (GSH) was “increases the intracellular level of GSH” and the “cytotoxicity (in words)” value (PBMCs) was “not cytotoxic”. For the same compound, the pEC50 (HIV-1/Ba-L [3]) was 5.52.
